For 1 compound, MIC results are on record in US7160508B2, “Personal care products having elastomeric portions” (The Gillette Company, priority 2001, dated 2007).

Converted amounts (≈) assume the structure as drawn.

The experiment in a line: Minimum inhibitory concentration (agar plate dilution, molds). Type of experiment: cell-based. The following applies: 168 h; lowest concentration in sterile water and agar with no growth visible to the naked eye after 7 days at 27±2° C. The source says: Preferred antimicrobial agents will inhibit mold growth at relatively low concentrations of antimicrobial agent, i.e., preferred antimicrobial agents will have a low “minimum inhibitory concentration” (MIC), measured as parts per million (ppm) concentration in sterile water and agar using the test procedure discussed below. If the MIC is high, a high concentration of antimicrobial agent will generally be necessary in order to obtain sufficient antifungal activity, resulting in increased cost and a potential adverse affect on the properties of the elastomeric material. For example, high concentrations of antifungal agent may tend to increase the hardness of the thermoplastic elastomer. Preferred antimicrobial agents have an MIC of less than about 100 ppm.
Minimum inhibitory concentration is measured by diluting the antimicrobial agent in sterile water to obtain a plurality of solutions having a range of concentrations. 1 ml of each of the solutions is added to 9 ml portions of molten agar to give a final volume of 10 ml, and immediately poured to form plates. […] The plates are incubated at 27±2° C. and analyzed for growth at 3, 5 and 7 days. […]

As a reminder, the MIC is the least concentration at which growth counts as inhibited. Lower therefore signals inhibition by little substance. `CCCCCCCCn1sc(Cl)c(Cl)c1=O` [4,5-dichloro-2-n-octyl-4-isothiazolin-3-one] yielded an MIC of around 50 µg/mL (≈ 177 µM).
